How the values were obtained:
[1] = biological target: recombinant poly(ADP-ribose) polymerase 2 (PARP2); experiment: PARP2 chemiluminescent assay; assay type: biochemical; settings: inhibition of PARP2 enzyme activity, chemiluminescence
[2] = test system: MDA-MB-436 cells; experiment: Growth inhibition assay against BRCA mutant human breast cancer MDA-MB-436 cell line (CCK-8); assay type: cell-based; settings: Homo sapiens, MDA-MB-436, […], proliferation of MDA-MB-436 cells, 7 days
[3] = biological target: recombinant poly(ADP-ribose) polymerase 1 (PARP1) (Homo sapiens (Human), UniProt P09874)
Chain of recombinant poly(ADP-ribose) polymerase 1 (PARP1) (P09874 whole entry): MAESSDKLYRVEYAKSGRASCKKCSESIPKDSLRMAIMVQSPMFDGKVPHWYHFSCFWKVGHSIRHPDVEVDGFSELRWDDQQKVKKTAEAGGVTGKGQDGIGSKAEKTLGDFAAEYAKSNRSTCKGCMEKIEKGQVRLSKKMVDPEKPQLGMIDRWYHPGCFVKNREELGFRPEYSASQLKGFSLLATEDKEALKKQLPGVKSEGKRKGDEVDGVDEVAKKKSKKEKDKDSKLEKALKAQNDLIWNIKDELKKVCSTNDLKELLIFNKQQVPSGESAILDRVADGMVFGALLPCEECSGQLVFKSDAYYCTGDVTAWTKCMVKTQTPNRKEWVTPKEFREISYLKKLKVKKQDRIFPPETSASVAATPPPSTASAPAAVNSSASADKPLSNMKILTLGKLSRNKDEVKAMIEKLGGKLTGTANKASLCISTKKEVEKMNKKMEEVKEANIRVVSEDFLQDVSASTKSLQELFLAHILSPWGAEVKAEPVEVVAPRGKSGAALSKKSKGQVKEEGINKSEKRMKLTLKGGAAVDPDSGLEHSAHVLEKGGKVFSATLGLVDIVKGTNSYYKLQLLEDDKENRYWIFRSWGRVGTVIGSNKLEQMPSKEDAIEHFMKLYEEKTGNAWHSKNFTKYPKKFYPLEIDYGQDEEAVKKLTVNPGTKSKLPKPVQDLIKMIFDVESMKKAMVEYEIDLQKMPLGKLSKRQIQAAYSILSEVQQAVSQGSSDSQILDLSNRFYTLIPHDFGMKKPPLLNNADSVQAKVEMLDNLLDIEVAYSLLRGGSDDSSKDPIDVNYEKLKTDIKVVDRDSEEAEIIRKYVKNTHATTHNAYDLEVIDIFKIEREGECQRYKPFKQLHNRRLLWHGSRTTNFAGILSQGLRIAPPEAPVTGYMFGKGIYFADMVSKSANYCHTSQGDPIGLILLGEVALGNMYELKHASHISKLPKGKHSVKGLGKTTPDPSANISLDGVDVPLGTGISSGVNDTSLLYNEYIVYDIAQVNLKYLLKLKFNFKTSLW

Structure (SMILES)	IC50 [1] [nM]	IC50 [2] [µM]	IC50 [3] [µM]
CNC(=O)c1ccc(N2CCN(Cc3ccc4c([nH]c(=O)c5cc(C)nn54)c3F)CC2)c(Cl)n1 [Example 151, 7-((4-(2-chloro-6-(methylcarbamoyl)pyridin-3-yl)piperazin-1-yl)methyl)-6-fluoro-2-methylpyrazolo[1,5-a]quinoxalin-4(5H)-one]	1210	0.00119	0.0005
Cc1nc(C(=O)NC2CC2)ccc1N1CCN(Cc2ccc3c([nH]c(=O)n4ccnc34)c2F)CC1 [Example 65, 8-((4-(2-methyl-6-(cyclopropylcarbamoyl)pyridin-3-yl)piperazin-1-yl)methyl)-7-fluoroimidazo[1,2-c]quinazolin-5(6H)-one]	> 10000	0.0538	0.00453
CNC(=O)c1ccc(N2CCN(Cc3cc(F)c4c(c3)[nH]c(=O)c3cncn34)CC2)c(Cl)n1 [Example 54, 7-((4-(2-chloro-6-(methylcarbamoyl)pyridin-3-yl)piperazin-1-yl)methyl)-9-fluoroimidazo[1,5-a]quinoxalin-4(5H)-one]	648	0.00585	0.00052
CNC(=O)c1ccc(N2CCN(Cc3cc4[nH]c(=O)n5nccc5c4cc3F)CC2)c(F)n1 [Example 120, 8-((4-(2-fluoro-6-(methylcarbamoyl)pyridin-3-yl)piperazin-1-yl)methyl)-9-fluoropyrazolo[1,5-c]quinazolin-5(6H)-one]	683	0.0236	0.00187
CNC(=O)c1ccc(N2CCN(Cc3cc4[nH]c(=O)c5c(C)cnn5c4cc3F)CC2)c(Cl)n1 [Example 170, 8-fluoro-7-((4-(2-chloro-6-(methylcarbamoyl)pyridin-3-yl)piperazin-1-yl)methyl)-3-methylpyrazolo[1,5-a]quinoxalin-4(5H)-one]	–	0.0185	–
CNC(=O)c1ccc(N[C@@H]2CCN(Cc3ccc4c([nH]c(=O)c5c(C)cnn54)c3F)C2)c(F)n1 [Example 135, (R)-6-fluoro-7-((3-((2-fluoro-6-(methylcarbamoyl)pyridin-3-yl)amino)pyrrolidin-1-yl)methyl)-3-methylpyrazolo[1,5-a]quinoxalin-4(5H)-one]	–	> 0.1	–
CNC(=O)c1ccc(N2CCN(Cc3ccc4c([nH]c(=O)n5nccc45)c3F)CC2)c(F)n1 [Example 73, 8-((4-(2-fluoro-6-(methylcarbamoyl)pyridin-3-yl)piperazin-1-yl)methyl)-7-fluoropyrazolo[1,5-c]quinazolin-5(6H)-one]	–	0.0123	–
CNC(=O)c1ccc(N[C@@H]2CCN(Cc3ccc4c([nH]c(=O)c5c(C)cnn54)c3F)C2)cn1 [Example 134, (R)-6-fluoro-3-methyl-7-((3-((6-(methylcarbamoyl)pyridin-3-yl)amino)pyrrolidin-1-yl)methyl)pyrazolo[1,5-a]quinoxalin-4(5H)-one]	–	> 0.1	–
CNC(=O)c1ccc(N2CCN(Cc3ccc4c(c3)[nH]c(=O)c3ccn(C)c34)CC2)c(F)n1 [Example 24, 7-((4-(2-fluoro-6-(methylcarbamoyl)pyridin-3-yl)piperazin-1-yl)methyl)-1-methyl-1,5-dihydro-4H-pyrrolo[3,2-c]quinolin-4-one]	–	0.00111	–
CNC(=O)c1ccc(N2CCN(Cc3ccc4c([nH]c(=O)c5ocnc54)c3F)CC2)c(F)n1 [Example 95, 7-((4-(2-fluoro-6-(methylcarbamoyl)pyridin-3-yl)piperazin-1-yl)methyl)-6-fluorooxazolo[5,4-c]quinolin-4(5H)-one]	–	> 0.1	–
CNC(=O)c1ccc(N2CCN(Cc3ccc4c([nH]c(=O)c5cn(C)nc54)c3F)CC2)c(F)n1 [Example 90, 7-((4-(2-fluoro-6-(methylcarbamoyl)pyridin-3-yl)piperazin-1-yl)methyl)-6-fluoro-2-methyl-2,5-dihydro-4H-pyrazolo[4,3-c]quinolin-4-one]	–	0.0287	–
CNC(=O)c1ccc(C2CCN(Cc3ccc4c([nH]c(=O)c5c(C)cnn54)c3F)CC2)c(F)n1 [Example 124, 6-fluoro-7-((4-(2-fluoro-6-(methylcarbamoyl)pyridin-3-yl)piperidin-1-yl)methyl)-3-methylpyrazolo[1,5-a]quinoxalin-4(5H)-one]	–	0.0255	–
CNC(=O)c1ccc(N[C@@H]2CCN(Cc3ccc4c([nH]c(=O)c5occc54)c3F)C2)cn1 [Example 146, (R)-7-((3-((6-(methylcarbamoyl)pyridin-3-yl)amino)pyrrolidin-1-yl)methyl)-6-fluorofuro[2,3-c]quinolin-4(5H)-one]	–	> 0.1	–
CNC(=O)c1ccc(N2CCN(Cc3ccc4c([nH]c(=O)c5c(F)cnn54)c3Cl)CC2)c(C)n1 [Example 193, 3-fluoro-7-((4-(2-methyl-6-(methylcarbamoyl)pyridin-3-yl)piperazin-1-yl)methyl)-6-chloropyrazolo[1,5-a]quinoxalin-4(5H)-one]	–	0.0397	–
CNC(=O)c1ccc(N2CCN(Cc3ccc4c([nH]c(=O)c5c(C)noc54)c3F)CC2)c(F)n1 [Example 96, 7-((4-(2-fluoro-6-(methylcarbamoyl)pyridin-3-yl)piperazin-1-yl)methyl)-3-methyl-6-fluoroisoxazolo[4,5-c]quinolin-4(5H)-one]	–	0.0367	–
CNC(=O)c1ccc(N2CCN(Cc3ccc4c(c3)[nH]c(=O)c3occc34)CC2)cn1 [Example 113, 7-((4-(6-(methylcarbamoyl)pyridin-3-yl)piperazin-1-yl)methyl)furo[2,3-c]quinolin-4(5H)-one]	–	0.00219	–
CNC(=O)c1ccc(N2CCN(Cc3ccc4c(c3)[nH]c(=O)c3c4ccn3C)CC2)c(C)n1 [Example 11, 7-((4-(2-methyl-6-(methylcarbamoyl)pyridin-3-yl)piperazin-1-yl)methyl)-3-methyl-3,5-dihydro-4H-pyrrolo[2,3-c]quinolin-4-one]	–	0.0113	–
CNC(=O)c1ccc(N2CCN(Cc3ccc4c(c3)[nH]c(=O)c3n[nH]cc34)CC2)c(C)n1 [Example 70, 7-((4-(2-methyl-6-(methylcarbamoyl)pyridin-3-yl)piperazin-1-yl)methyl)-2,5-dihydro-4H-pyrazolo[3,4-c]quinolin-4-one]	–	0.0289	–
CNC(=O)c1ccc(N2CCN(Cc3cc4[nH]c(=O)c5c(C)cnn5c4cc3F)CC2)c(C)n1 [Example 169, 8-fluoro-7-((4-(2-methyl-6-(methylcarbamoyl)pyridin-3-yl)piperazin-1-yl)methyl)-3-methylpyrazolo[1,5-a]quinoxalin-4(5H)-one]	–	0.0203	–

The remaining lines, values ahead:

IC50 [1] [nM]	IC50 [2] [µM]	IC50 [3] [µM]	Structure (SMILES)
–	> 0.1	–	CNC(=O)c1ccc(N2CCN(Cc3ccc4c([nH]c(=O)c5c(C)cnn54)c3Cl)CC2)c(C)n1 [Example 175, 6-chloro-7-((4-(2-methyl-6-(methylcarbamoyl)pyridin-3-yl)piperazin-1-yl)methyl)-3-methylpyrazolo[1,5-a]quinoxalin-4(5H)-one]
–	> 0.1	–	CNC(=O)c1ccc(N2CCN(Cc3ccc4c([nH]c(=O)c5c(C)cnn54)c3F)CC2)c(C2CC2)n1 [Example 160, 7-((4-(2-cyclopropyl-6-(methylcarbamoyl)pyridin-3-yl)piperazin-1-yl)methyl)-6-fluoro-3-methylpyrazolo[1,5-a]quinoxalin-4(5H)-one]
–	> 0.1	–	CNC(=O)c1ccc(N2CCN(Cc3ccc4c([nH]c(=O)c5c(C(C)C)cnn54)c3F)CC2)c(F)n1 [Example 203, 7-((4-(2-fluoro-6-(methylcarbamoyl)pyridin-3-yl)piperazin-1-yl)methyl)-3-isopropyl-6-fluoropyrazolo[1,5-a]quinoxalin-4(5H)-one]
–	0.047	–	CNC(=O)c1ccc(N2CCN(Cc3ccc4c([nH]c(=O)c5c(C)cnn54)c3Cl)CC2)c(F)n1 [Example 174, 6-chloro-7-((4-(2-fluoro-6-(methylcarbamoyl)pyridin-3-yl)piperazin-1-yl)methyl)-3-methylpyrazolo[1,5-a]quinoxalin-4(5H)-one]
–	0.0232	–	CNC(=O)c1ccc(N2CCN(Cc3ccc4c([nH]c(=O)c5c(C)cnn54)c3C)CC2)c(Cl)n1 [Example 173, 7-((4-(2-chloro-6-(methylcarbamoyl)pyridin-3-yl)piperazin-1-yl)methyl)-3,6-dimethylpyrazolo[1,5-a]quinoxalin-4(5H)-one]
–	0.0713	–	Cc1cnn2c1c(=O)[nH]c1c(F)c(CN3CCN(c4ccc(C#N)nc4F)CC3)ccc12 [Example 164, 6-fluoro-7-((4-(2-fluoro-6-cyanopyridin-3-yl)piperazin-1-yl)methyl)-3-methylpyrazolo[1,5-a]quinoxalin-4(5H)-one]
–	0.0236	–	CNC(=O)c1ccc(N2CCN(Cc3ccc4c([nH]c(=O)c5c(C)cnn54)c3F)CC2)cn1 [Example 153, 6-fluoro-3-methyl-7-((4-(6-(methylcarbamoyl)pyridin-3-yl)piperazin-1-yl)methyl)pyrazolo[1,5-a]quinoxalin-4(5H)-one]
–	0.0982	–	Cc1cnn2c1c(=O)[nH]c1c(F)c(CN3CCN(c4ccc(-c5ncc[nH]5)nc4)CC3)ccc12 [Example 158, 7-((4-(6-(1H-imidazol-2-yl)pyridin-3-yl)piperazin-1-yl)methyl)-6-fluoro-3-methylpyrazolo[1,5-a]quinoxalin-4(5H)-one]
–	0.0553	–	CNC(=O)c1ncc(N2CCN(Cc3ccc4c([nH]c(=O)c5c(C)cnn54)c3F)CC2)cc1F [Example 127, 7-((4-(5-fluoro-6-(methylcarbamoyl)pyridin-3-yl)piperazin-1-yl)methyl)-6-fluoro-3-methylpyrazolo[1,5-a]quinoxalin-4(5H)-one]
–	> 0.1	–	CNC(=O)c1ccc(N2CCN(Cc3ccc4c([nH]c(=O)c5c(C)cnn54)c3Cl)CC2)c(Cl)n1 [Example 176, 6-chloro-7-((4-(2-chloro-6-(methylcarbamoyl)pyridin-3-yl)piperazin-1-yl)methyl)-3-methylpyrazolo[1,5-a]quinoxalin-4(5H)-one]
–	0.00859	–	N#Cc1ccc(N2CCN(Cc3ccc4c([nH]c(=O)c5c(F)cnn54)c3F)CC2)c(F)n1 [Example 195, 7-((4-(2-fluoro-6-cyanopyridin-3-yl)piperazin-1-yl)methyl)-3,6-difluoropyrazolo[1,5-a]quinoxalin-4(5H)-one]
